{"source": "patent US20080299123A1", "about": "“TREATMENT OF CHEMOTHERAPY- OR RADIOTHERAPY-RESISTANT TUMORS” (Deutsches Krebsforschungszentrum Stiftung des offentlichen …, priority 2006, published 2008)", "system": "L1CAM", "test": "L1CAM expression in PT45-P1res cells (western blotting, flow cytometry, real-time PCR)", "assay_type": "cell-based, human", "conditions": "inhibitor 10 μmol/L, 24 hours", "method": "After washing in PBS, cells grown in 6-well culture plates were detached with 5 mmol/L EDTA in PBS and then washed with PBS once again. Blocking was conducted in 1% BSA/PBS for 60 min. at room temperature followed by incubation with the anti L1CAM antibody L1-11A or an isotype matched control antibody (1:1000, in 1% BSA/PBS) at 4° C. overnight. Then, cells were washed three times in PBS followed by incubation (60 min, 37° C.) with a goat-anti mouse antibody conjugated with Alexa flour 488 (Dianova, Hamburg, Germany) diluted 1:500 in 1% BSA/PBS. After washing in PBS, cells were resuspended in 500 μL PBS and analysed by fluorescence flow cytometry.\nCells were seeded into 6 well and 12 well plates, respectively, and transfected or treated as indicated. Then, cells were washed once with PBS and lysed with 1 volume of 2×SDS sample buffer (128 mmol/L Tris-Base, 4.6% SDS, 10% glycerol). Samples were heated for 5 minutes at 95° C. and put on ice for 2 minutes. Protein concentrations were determined using the Dc Protein assay (BioRad). Ten μg of protein adjusted to an appropriate volume of SDS sample buffer containing 0.2 mg/mL bromphenolblue (Serva, Heidelberg, Germany) and 2.5% β-mercaptoethanol (Biomol, Hamburg, Germany) were submitted to electrophoresis on a 4-20% ProGel-Tris-glycin-gel (Anamed, Darmstadt, Germany) and immunoblotting was performed as described previously (Arlt et al, 2001). For detection of L1CAM, a monoclonal antibody (clone UJ127 from Acris Antibodies) was diluted at a concentration of 0.4 μg/mL in 5% nonfat milk powder and 0.05% Tween in TBS (blotto) and incubated overnight at 4° C. For detection of the cytoplasmic domain of L1CAM, the pcytL1 antibody (Mechtersheimer et al., 2001) was used at a concentration of 1 μg/mL in blotto and incubated overnight at 4° C. As control of equal protein load, a polyclonal rabbit antibody for HSP90 (Santa Cruz, Heidelberg, Germany) was diluted 1:2000 in blotto. The mouse anti CD51 antibody from Beckman Coulter GmbH (Krefeld, Germany) was used at a concentration of 1:500 in blotto for detection of human αv integrin. Incubation with the primary antibodies was performed overnight at 4° C. For detection of the primary antibodies, anti-mouse and anti-rabbit HRP-linked antibodies (Cell Signaling), respectively, were used at a dilution of 1:2000 in blotto-TBST at room temperature for 1 hour. After washing in TBST, blots were developed using the LumiGlo peroxidase detection kit (Cell Signaling).\n2 μg of total RNA were reverse-transcribed into single-stranded cDNA, as described previously (Schafer et al., 1999). Two μL of cDNA and 0.2 μmol/L gene-specific primers were adjusted with RNAse-free water to a volume of 15 μL. To this mixture, 15 μL of iQ SYBR Green Supermix (BioRad) were added. Primers for the detection of L1CAM (Gavert et al., 2005) were used under the following conditions: 95° C./1 min; 95° C./1 min, 52° C./30 see, 72° C./30 see for 40 cycles; 72° C./10 min. Primers for the detection of iNOS were from Biosource (Ratingen, Germany) and used under the following PCR conditions: 95° C./5 min; 95° C./45 sec, 60° C./45 sec, 72° C./45 sec for 40 cycles; 72° C./10 min. For control, β-actin was amplified in parallel using primers from BD Biosciences Clontech. […] Data were collected during annealing steps and were further analysed by using the i-Cycler iQ Optical system software (BioRad). All samples were analysed in duplicates and data are expressed as amount of mRNA in arbitrary units."}
{"smiles": "CC(C)C[C@H](CC(=O)NO)C(=O)N[C@@H](Cc1ccc2ccccc2c1)C(=O)N[C@@H](C)C(N)=O", "note": "[TAPI-0]", "values": [{"measurement": "L1CAM expression (full-length 220 kDa and 32 kD fragment)", "value": "neither of the inhibitors changed L1 CAM expression"}]}
